Assay results as given in PMC11814083, “Effect of pH and buffer on substrate binding and catalysis by cis-aconitate decarboxylase” (Scientific Reports, 2025).

What was measured:
Test in all cases: HPLC of itaconate, UV […] nm, Michaelis-Menten fit
Type in all cases: biochemical
[1] = biological target: T1, mACOD1 (Mus musculus, UniProt P54987); conditions: pH 7.0, 37 °C, 50 mM MOPS, 100 mM NaCl; 95% confidence interval in brackets; other pH 5.5-8.25 also in table
T1 construct: gene Acod1; aa 4-461, recombinant from E. coli, clone CAD39 (by order of listing), purified; homodimer
T1 sequence (P54987 4-461): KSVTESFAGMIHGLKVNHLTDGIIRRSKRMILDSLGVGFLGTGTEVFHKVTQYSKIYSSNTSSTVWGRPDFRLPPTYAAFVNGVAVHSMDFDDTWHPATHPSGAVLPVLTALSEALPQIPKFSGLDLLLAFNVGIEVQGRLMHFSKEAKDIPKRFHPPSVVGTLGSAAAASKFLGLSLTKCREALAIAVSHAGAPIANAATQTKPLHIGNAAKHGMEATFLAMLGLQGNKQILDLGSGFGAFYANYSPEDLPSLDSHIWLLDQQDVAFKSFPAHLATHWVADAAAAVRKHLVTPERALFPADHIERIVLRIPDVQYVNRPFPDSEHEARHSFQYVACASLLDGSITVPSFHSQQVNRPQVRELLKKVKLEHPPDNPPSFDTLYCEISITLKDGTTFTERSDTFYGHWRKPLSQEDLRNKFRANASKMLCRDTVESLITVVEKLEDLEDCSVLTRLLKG

[2] = biological target: T2, hACOD1 (Homo sapiens, UniProt A6NK06); conditions: pH 7.0, 37 °C, 50 mM MOPS, 100 mM NaCl; 95% confidence interval in brackets; other pH 5.5-8.25 also in table
T2 construct: gene ACOD1; aa 4-461, recombinant from E. coli, clone CAD29, purified; homodimer
T2 sequence (A6NK06 4-461): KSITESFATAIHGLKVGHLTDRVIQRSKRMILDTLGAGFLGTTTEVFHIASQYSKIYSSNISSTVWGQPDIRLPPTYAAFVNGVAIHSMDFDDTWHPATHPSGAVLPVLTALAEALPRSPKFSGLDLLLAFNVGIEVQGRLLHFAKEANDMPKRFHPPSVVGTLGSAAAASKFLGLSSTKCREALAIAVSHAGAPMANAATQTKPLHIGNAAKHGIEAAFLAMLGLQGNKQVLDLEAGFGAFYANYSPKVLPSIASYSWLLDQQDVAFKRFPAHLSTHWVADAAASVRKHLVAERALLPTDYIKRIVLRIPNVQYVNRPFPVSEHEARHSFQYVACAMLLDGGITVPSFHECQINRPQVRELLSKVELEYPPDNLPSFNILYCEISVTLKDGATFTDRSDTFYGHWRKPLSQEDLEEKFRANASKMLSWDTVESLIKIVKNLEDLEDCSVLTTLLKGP

[3] = biological target: T3, aCAD (Aspergillus terreus, UniProt B3IUN8); conditions: pH 7.0, 37 °C, 50 mM MOPS, 100 mM NaCl; 95% confidence interval in brackets; other pH 5.5-7.5 also in table
T3 construct: gene cad1; aa 12-490, recombinant from E. coli, clone CAD16 (by order of listing), purified; homodimer
T3 sequence (B3IUN8 12-490): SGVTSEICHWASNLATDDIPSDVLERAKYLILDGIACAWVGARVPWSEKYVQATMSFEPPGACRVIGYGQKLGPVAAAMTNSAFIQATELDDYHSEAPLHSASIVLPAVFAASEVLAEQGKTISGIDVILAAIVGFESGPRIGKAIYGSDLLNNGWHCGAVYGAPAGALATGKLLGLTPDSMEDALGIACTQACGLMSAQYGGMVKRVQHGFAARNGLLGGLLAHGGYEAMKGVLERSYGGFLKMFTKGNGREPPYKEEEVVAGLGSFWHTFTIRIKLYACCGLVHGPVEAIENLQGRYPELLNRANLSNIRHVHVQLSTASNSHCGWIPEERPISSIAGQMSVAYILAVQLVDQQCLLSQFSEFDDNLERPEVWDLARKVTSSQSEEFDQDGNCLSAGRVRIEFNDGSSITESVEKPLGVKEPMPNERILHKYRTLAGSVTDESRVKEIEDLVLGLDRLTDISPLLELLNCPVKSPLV

## O=C(O)/C=C(/CC(=O)O)C(=O)O [cis-aconitate]
[1]
  Michaelis constant (KM): 0.17 (0.15-0.19) mM
[2]
  KM (95% confidence interval) (mM) / hACOD1 / kcat (95% confidence interval) (s^-1) / kcat/KM (M^-1 s^-1): 0.23 (0.21-0.26) mM
[3]
  KM (95% confidence interval) (mM) / aCAD / kcat (95% confidence interval) (s^-1) / kcat/KM (M^-1 s^-1): 2.1 (1.9-2.5) mM
